Source: US20140120232A1, “ACID TASTE/ACID SMELL-REDUCING AGENT” (T. HASEGAWA CO., LTD., priority 2011, published 2014)

Assay: Sensory evaluation of Vermont drink containing the agent
Conditions: ten panels
Experimental: Water was added to a mixture of 10 g of apple-cider vinegar (acetic acid: 4.8%), 3 g of honey, 7 g of fructose-glucose liquid sugar mixed with sugar, 0.02 g of citric acid, 0.002 g of trisodium citrate, and 0.1 g of a Vermont flavor (manufactured by T. Hasegawa Co., Ltd.) to give a total amount of 100 mL. To the resulting mixture was added (Z,Z)-4,7-tridecadienal as the acid taste and/or acid smell-reducing agent of the present invention in concentrations shown in the following Table 1 to give Vermont drinks containing the agent.
Sensory evaluation of each drink was carried out by ten panels. […] The piercing aroma characteristic to aldehydes is a characteristic aroma common to every aldehyde and refers to an irritant off-smell giving an image of deteriorated oils and fats, soap, metals, Houttuynia cordata, etc. The judgment of smell was performed by comparing the effects at different concentrations of the acid taste and/or acid smell-reducing agent, and a concentration giving the highest acid taste/acid smell quality was selected. […]

SMILES: CCCCC/C=C\C/C=C\C=C\C=O [(E,Z,Z)-2,4,7-tridecatrienal]
- A: number of panels, acid taste/acid smell extreme and cause irritation (0.005 ppt): 10
- B: number of panels, acid taste/acid smell slightly strong and slightly cause irritation (0.005 ppt): 0
- C: number of panels, acid taste/acid smell slightly unpleasant (0.005 ppt): 0
- Flavor judgment: number of panels who judged acid taste/acid smell quality the highest (0.005 ppt): 0
- N: number of panels, irritation of acid reduced to give a mild acid taste (0.005 ppt): 0
- X: number of panels, acid taste reduced but piercing odor characteristic to aldehydes unpleasant (0.005 ppt): 0
- A: number of panels, acid taste/acid smell extreme and cause irritation (0.02 ppt): 8
- B: number of panels, acid taste/acid smell slightly strong and slightly cause irritation (0.02 ppt): 1
- C: number of panels, acid taste/acid smell slightly unpleasant (0.02 ppt): 1
- Flavor judgment: number of panels who judged acid taste/acid smell quality the highest (0.02 ppt): 0
- N: number of panels, irritation of acid reduced to give a mild acid taste (0.02 ppt): 0
- X: number of panels, acid taste reduced but piercing odor characteristic to aldehydes unpleasant (0.02 ppt): 0
- A: number of panels, acid taste/acid smell extreme and cause irritation (0.1 ppt): 7
- B: number of panels, acid taste/acid smell slightly strong and slightly cause irritation (0.1 ppt): 2
- C: number of panels, acid taste/acid smell slightly unpleasant (0.1 ppt): 1
- Flavor judgment: number of panels who judged acid taste/acid smell quality the highest (0.1 ppt): 0
- N: number of panels, irritation of acid reduced to give a mild acid taste (0.1 ppt): 0
- X: number of panels, acid taste reduced but piercing odor characteristic to aldehydes unpleasant (0.1 ppt): 0
- A: number of panels, acid taste/acid smell extreme and cause irritation (0.2 ppt): 4
- B: number of panels, acid taste/acid smell slightly strong and slightly cause irritation (0.2 ppt): 3
- C: number of panels, acid taste/acid smell slightly unpleasant (0.2 ppt): 3
- Flavor judgment: number of panels who judged acid taste/acid smell quality the highest (0.2 ppt): 0
- N: number of panels, irritation of acid reduced to give a mild acid taste (0.2 ppt): 0
- X: number of panels, acid taste reduced but piercing odor characteristic to aldehydes unpleasant (0.2 ppt): 0
- A: number of panels, acid taste/acid smell extreme and cause irritation (0.5 ppt): 0
- B: number of panels, acid taste/acid smell slightly strong and slightly cause irritation (0.5 ppt): 1
- C: number of panels, acid taste/acid smell slightly unpleasant (0.5 ppt): 3
- Flavor judgment: number of panels who judged acid taste/acid smell quality the highest (0.5 ppt): 1
- N: number of panels, irritation of acid reduced to give a mild acid taste (0.5 ppt): 6
- X: number of panels, acid taste reduced but piercing odor characteristic to aldehydes unpleasant (0.5 ppt): 0
- A: number of panels, acid taste/acid smell extreme and cause irritation (1 ppb): 0
- B: number of panels, acid taste/acid smell slightly strong and slightly cause irritation (1 ppb): 0
- C: number of panels, acid taste/acid smell slightly unpleasant (1 ppb): 3
- Flavor judgment: number of panels who judged acid taste/acid smell quality the highest (1 ppb): 0
- N: number of panels, irritation of acid reduced to give a mild acid taste (1 ppb): 3
- X: number of panels, acid taste reduced but piercing odor characteristic to aldehydes unpleasant (1 ppb): 4
- A: number of panels, acid taste/acid smell extreme and cause irritation (1 ppt): 0
- B: number of panels, acid taste/acid smell slightly strong and slightly cause irritation (1 ppt): 1
- C: number of panels, acid taste/acid smell slightly unpleasant (1 ppt): 2
- Flavor judgment: number of panels who judged acid taste/acid smell quality the highest (1 ppt): 3
- N: number of panels, irritation of acid reduced to give a mild acid taste (1 ppt): 7
- X: number of panels, acid taste reduced but piercing odor characteristic to aldehydes unpleasant (1 ppt): 0
- A: number of panels, acid taste/acid smell extreme and cause irritation (5 ppt): 0
- B: number of panels, acid taste/acid smell slightly strong and slightly cause irritation (5 ppt): 0
- C: number of panels, acid taste/acid smell slightly unpleasant (5 ppt): 3
- Flavor judgment: number of panels who judged acid taste/acid smell quality the highest (5 ppt): 3
- N: number of panels, irritation of acid reduced to give a mild acid taste (5 ppt): 7
- X: number of panels, acid taste reduced but piercing odor characteristic to aldehydes unpleasant (5 ppt): 0
- A: number of panels, acid taste/acid smell extreme and cause irritation (10 ppb): 0
- B: number of panels, acid taste/acid smell slightly strong and slightly cause irritation (10 ppb): 0
- C: number of panels, acid taste/acid smell slightly unpleasant (10 ppb): 2
- Flavor judgment: number of panels who judged acid taste/acid smell quality the highest (10 ppb): 0
- N: number of panels, irritation of acid reduced to give a mild acid taste (10 ppb): 3
- X: number of panels, acid taste reduced but piercing odor characteristic to aldehydes unpleasant (10 ppb): 5
- A: number of panels, acid taste/acid smell extreme and cause irritation (20 ppt): 0
- B: number of panels, acid taste/acid smell slightly strong and slightly cause irritation (20 ppt): 0
- C: number of panels, acid taste/acid smell slightly unpleasant (20 ppt): 4
- Flavor judgment: number of panels who judged acid taste/acid smell quality the highest (20 ppt): 3
- N: number of panels, irritation of acid reduced to give a mild acid taste (20 ppt): 6
- X: number of panels, acid taste reduced but piercing odor characteristic to aldehydes unpleasant (20 ppt): 0
- A: number of panels, acid taste/acid smell extreme and cause irritation (50 ppb): 0
- B: number of panels, acid taste/acid smell slightly strong and slightly cause irritation (50 ppb): 0
- C: number of panels, acid taste/acid smell slightly unpleasant (50 ppb): 1
- Flavor judgment: number of panels who judged acid taste/acid smell quality the highest (50 ppb): 0
- N: number of panels, irritation of acid reduced to give a mild acid taste (50 ppb): 2
- X: number of panels, acid taste reduced but piercing odor characteristic to aldehydes unpleasant (50 ppb): 7
- A: number of panels, acid taste/acid smell extreme and cause irritation (100 ppt): 0
- B: number of panels, acid taste/acid smell slightly strong and slightly cause irritation (100 ppt): 2
- C: number of panels, acid taste/acid smell slightly unpleasant (100 ppt): 3
- Flavor judgment: number of panels who judged acid taste/acid smell quality the highest (100 ppt): 0
- N: number of panels, irritation of acid reduced to give a mild acid taste (100 ppt): 4
- X: number of panels, acid taste reduced but piercing odor characteristic to aldehydes unpleasant (100 ppt): 1
- A: number of panels, acid taste/acid smell extreme and cause irritation (500 ppt): 0
- B: number of panels, acid taste/acid smell slightly strong and slightly cause irritation (500 ppt): 0
- C: number of panels, acid taste/acid smell slightly unpleasant (500 ppt): 3
- Flavor judgment: number of panels who judged acid taste/acid smell quality the highest (500 ppt): 0
- N: number of panels, irritation of acid reduced to give a mild acid taste (500 ppt): 4
- X: number of panels, acid taste reduced but piercing odor characteristic to aldehydes unpleasant (500 ppt): 3
